Consider 16 compounds from PubChem BioAssay (NCI).

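In this assay, cells in 96-well plates receive the compound at five concentrations for 48 hours. Endpoints are linearly interpolated between the surrounding concentrations. GI50: concentration for 50% inhibition of growth. At the TGI there is no net growth.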 A value given as a limit tells only on which side of the number the result lay.

Among the test systems are MDA-MB-435; SK-MEL-2 melanoma; DU-145 prostate; BT-549 breast; CAKI-1 renal; SK-MEL-5 melanoma; MDA-N; UACC-257 melanoma; A498 renal; MALME-3M melanoma.
Assay in all cases: growth of human tumour cells (NCI), 48 h

Consider `c1ccc(C2C3=C(CCCC3)Nc3nnnn32)cc1` (configuration not stated), for which the TGI in the experiment with MDA-MB-435 is > 100 µM; in the experiment with SK-MEL-2 melanoma, > 100 µM; in the experiment with DU-145 prostate it was > 100 µM; with BT-549 breast, 98.4 µM; with CAKI-1 renal it was > 100 µM; in the experiment with SK-MEL-5 melanoma, > 100 µM. For the same compound, the TGI in the experiment on MDA-N, with UACC-257 melanoma and with A498 renal was > 100 µM in each case.

Regarding `CN(C)CCSc1nccc(-c2ccc(-c3ccnc(SCCN(C)C)n3)s2)n1`, the TGI in the experiment with MALME-3M melanoma amounted to 24.2 µM; in the experiment with SK-MEL-2 melanoma it was 29.5 µM; with CAKI-1 renal it was 33.1 µM; with SK-MEL-5 melanoma, 31 µM; in the experiment with UACC-257 melanoma, 31.1 µM; with A498 renal it was 29.6 µM.

For the compound `CC1C/C(=C\c2ccc(O)c(O)c2)C(=O)/C(=C/c2ccc(O)c(O)c2)C1` (configuration not stated), the TGI in the experiment with MDA-MB-435 is 9.74 µM; with MALME-3M melanoma it was 25.1 µM; in the experiment on SK-MEL-2 melanoma it was 34.8 µM; in the experiment on DU-145 prostate, 20.8 µM; in the experiment with CAKI-1 renal it was 18.1 µM; in the experiment on SK-MEL-5 melanoma it was 13.7 µM. Moreover, the values for the TGI in the experiment with MDA-N, in the experiment with UACC-257 melanoma and in the experiment with A498 renal were 15.7 µM, 28.7 µM and 12.8 µM, respectively.

Turning to `CC1CC2OC(=N)C1(C#N)C2(C#N)C#N` (configuration not stated), the TGI was > 100 µM in the experiment on MDA-MB-435; 48.9 µM with MALME-3M melanoma; 43.5 µM in the experiment with SK-MEL-2 melanoma; > 100 µM in the experiment with DU-145 prostate; 20.5 µM with CAKI-1 renal; 22.2 µM in the experiment with SK-MEL-5 melanoma. In addition, the TGI in the experiment on MDA-N was 33 µM; in the experiment with UACC-257 melanoma, 41 µM; in the experiment on A498 renal, 42 µM.

Turning to `COc1ccc(Cn2nc(OCc3ccccc3)c3cc([N+](=O)[O-])ccc32)cc1`, the TGI with MDA-MB-435, with MALME-3M melanoma, in the experiment with SK-MEL-2 melanoma, in the experiment with DU-145 prostate, in the experiment on SK-MEL-5 melanoma and with MDA-N was > 100 µM each time. Besides, the TGI in the experiment on UACC-257 melanoma and with A498 renal was > 100 µM each time.

With `CC(=O)c1nc(C#N)c(N)o1`, the TGI in the experiment with MDA-MB-435, in the experiment with MALME-3M melanoma, with SK-MEL-2 melanoma, in the experiment on DU-145 prostate, in the experiment with CAKI-1 renal and in the experiment with MDA-N was > 100 µM throughout. The TGI in the experiment with UACC-257 melanoma and in the experiment on A498 renal was > 100 µM throughout.

For `O=c1cc(-c2ccccc2)[nH]c2c(F)ccc(F)c12`, the TGI was 96.3 µM in the experiment on MALME-3M melanoma; 77.1 µM with SK-MEL-2 melanoma; > 100 µM in the experiment with CAKI-1 renal; > 100 µM with SK-MEL-5 melanoma; > 100 µM in the experiment on UACC-257 melanoma.

Take `COc1ccc(-c2nc3ncccn3c2-c2ccc(S(C)(=O)=O)cc2)cc1`: the TGI in the experiment with MDA-MB-435 was > 100 µM; with SK-MEL-2 melanoma, > 100 µM; in the experiment with DU-145 prostate, > 100 µM; with BT-549 breast, > 100 µM; with CAKI-1 renal it was 68.7 µM; in the experiment on SK-MEL-5 melanoma it was > 100 µM. Also, the TGI in the experiment on UACC-257 melanoma is > 100 µM.

With `COc1ccc(OC)c([N+](=O)[O-])c1-c1nc2sc(C)cn2c1/C=N/N=C(N)N`, the TGI is 56.7 µM in the experiment with MDA-MB-435; 44.3 µM with MALME-3M melanoma; 60.2 µM in the experiment with SK-MEL-2 melanoma; > 100 µM with DU-145 prostate; 41.9 µM in the experiment with BT-549 breast; 84.1 µM in the experiment with CAKI-1 renal. Moreover, the TGI was 49.9 µM in the experiment on SK-MEL-5 melanoma, 47 µM with UACC-257 melanoma and 78 µM with A498 renal.

For `Cc1nc(C)c(C(=O)NNC(=O)c2ccccc2)cc1C(=O)NNC(=O)c1ccccc1`, the TGI in the experiment on MDA-MB-435, with SK-MEL-2 melanoma, with DU-145 prostate, in the experiment with BT-549 breast, with CAKI-1 renal and in the experiment with SK-MEL-5 melanoma was > 100 µM throughout. Besides, the TGI in the experiment on MDA-N, with UACC-257 melanoma and in the experiment with A498 renal was > 100 µM in each case.

As to `[O-][n+]1cc(SCc2ccccc2)ncc1SCc1ccccc1`, the TGI in the experiment with MDA-MB-435, with MALME-3M melanoma, in the experiment with SK-MEL-2 melanoma, with DU-145 prostate, with BT-549 breast and with CAKI-1 renal was > 10 µM throughout. Further, the TGI in the experiment with SK-MEL-5 melanoma, with UACC-257 melanoma and with A498 renal was > 10 µM throughout.

Consider `Fc1sc2c(c1F)C1CCC2C1` (configuration not stated), for which the TGI with MDA-MB-435, in the experiment on MALME-3M melanoma, in the experiment on SK-MEL-2 melanoma, in the experiment with DU-145 prostate, in the experiment on CAKI-1 renal and with SK-MEL-5 melanoma was > 100 µM each time. Also, the TGI with MDA-N, in the experiment with UACC-257 melanoma and in the experiment with A498 renal was > 100 µM each time.

On to `CCC(C)Cn1c(C)nc2c1C(=O)c1ccccc1C2=O` (configuration not stated), for which the TGI was found to be 73.7 µM with MALME-3M melanoma, 76.5 µM in the experiment with SK-MEL-2 melanoma, 29.6 µM with SK-MEL-5 melanoma and 62.3 µM with UACC-257 melanoma.

With `CC(NC1=NCCO1)c1ccco1` (configuration not stated), the TGI with MDA-MB-435, in the experiment with MALME-3M melanoma, with SK-MEL-2 melanoma, in the experiment on DU-145 prostate, in the experiment with CAKI-1 renal and in the experiment with SK-MEL-5 melanoma was > 100 µM in each case. The TGI in the experiment on MDA-N, with UACC-257 melanoma and in the experiment on A498 renal was > 100 µM throughout.

Turning to `COc1ccc(Nc2ccnc3cc(Cl)ccc23)cc1CN(CCCl)CCCl`, the GI50 with DU-145 prostate was 901 nM; in the experiment on BT-549 breast it was 1780 nM; in the experiment on CAKI-1 renal it was 262 nM; with UACC-257 melanoma, 1980 nM; with A498 renal, 2120 nM. Besides, the TGI in the experiment with DU-145 prostate worked out at 3.54 µM; in the experiment on BT-549 breast, 13 µM; in the experiment on CAKI-1 renal, 0.933 µM; with UACC-257 melanoma, 5.96 µM; in the experiment with A498 renal it was 6.47 µM.

For `O=C(CSCC(=O)N/N=C\c1cccc(Br)c1)N/N=C\c1cccc(Br)c1`, the TGI came to 44.7 µM in the experiment on MDA-MB-435; 91.3 µM with SK-MEL-2 melanoma; 48.3 µM in the experiment on DU-145 prostate; 48.2 µM with BT-549 breast; 37.1 µM in the experiment on CAKI-1 renal; 42.3 µM in the experiment with SK-MEL-5 melanoma. Moreover, the TGI in the experiment with UACC-257 melanoma is 33.2 µM.
